According to US20210236529A1, “MULTI-TARGETED COMPOSITIONS FOR MITIGATING ACUTE RESPIRATORY DISTRESS SYNDROME” (priority 2020, published 2021):

Key:
[1] = target: SARS-CoV-2 RNA Polymerase (RdRp) (Severe acute respiratory syndrome coronavirus 2, UniProt P0DTD1); assay: SARS-CoV-2 RNA Polymerase (RdRp) Assay Kit, fluorescent enzymatic activity in vitro; type: biochemical; settings: for RdRp activity, % of Control: vs water control; for inhibition of SARS-CoV-2 RNA replication (in words): summary of Tables 1 and 2
IL-6 = IL-6 in conditioned medium of 3D ciliated airway tissues, sandwich ELISA; type: cell-based, human; settings: LPS 1 μg/ml, 72 h total contact
Protocol: (§1) A second study was undertaken to assess the ability of the select hydrolysable tannins to inhibit select pro-inflammatory interleukins, namely IL-6 and IL-8. The study was conducted using reconstituted human ciliated airway tissue. Specifically, Ninety Six 3D ciliated airway tissues (cat. #34839) were obtained from Mattek (Ashland, Mass.) and were cultured in Assay Media (cat. #031921JRD, MatTek). The tissue samples were rinsed twice before incubation with the MTT reagents. The test materials themselves were solubilized and diluted in sterile distilled water and added to the feeder chamber medium contacting the basal side of the tissues on Day 1. The test material was also applied topically on Day 2 together with LPS (added where indicated at 1 μg/ml, from Escherichia coli 0113, Cayman Chemical Company, Ann Arbor, Mich.) for total contact time of 72 h. The experiments were tested in triplicates or duplicates.
(§2) Following the exposures to the test materials, 1L-6 and IL-8 were quantified in the tissue culture—conditioned medium by sandwich ELISA (Table 4A and 4B). The effect of the test materials on mitochondrial metabolism was measured by the MTT assay, which quantifies the activity of mitochondrial dehydrogenases, such as succinate dehydrogenase, implicated in the respiratory electron transport chain in mitochondria. The MTT conversion values were also used to standardize the IL-6, IL-8 output data to tissue viability.

IL-8 = IL-8 in conditioned medium of 3D ciliated airway tissues, sandwich ELISA; type: cell-based, human; settings: LPS 1 μg/ml, 72 h total contact
Protocol: as §1, §2

Covid-19 patients = settings: after treatment; preliminary findings, 21 patients; cited from earlier work
[2] = 100 μg test material (0.209-0.213 μM)
[3] = 10 μgm/ml, standardized to MTT viability
[4] = 10 μg/ml, standardized to MTT viability

| Compound | RdRp activity, % of Control ([1]; 10 μg test material) | RdRp activity, % of Control ([1]; 50 μg test material) | RdRp activity, % of Control [1, 2] | inhibition of SARS-CoV-2 RNA replication (in words) [1] | IL-6, % of Control (IL-6; [3]) | IL-6, % of Control (IL-6; 50 μgm/ml) | IL-6, % of Control (IL-6; 200 μgm/ml) | IL-8, % of Control (IL-8; [4]) | IL-8, % of Control (IL-8; 50 μg/ml) | IL-8, % of Control (IL-8; 200 μg/ml) | IL-6, % of Control (IL-6; 100 μgm/ml) | IL-8, % of Control (IL-8; 100 μg/ml) | EC50 [1] [µM] | RdRp activity, % of Control ([1]; 10 μM) | RdRp activity, % of Control ([1]; 50 μM) | IL-6, % of Control (IL-6; 10 μM) | IL-6, % of Control (IL-6; 50 μM) | IL-8, % of Control (IL-8; 10 μM) | IL-8, % of Control (IL-8; 50 μM) | patients experiencing a reduced need for supplemental oxygen (Covid-19 patients) [%] |
| --- | --- | --- | --- | --- | --- | --- | --- | --- | --- | --- | --- | --- | --- | --- | --- | --- | --- | --- | --- | --- |
| O=C(O)C[C@@H]1C(=O)O[C@H]2[C@@H]3OC(=O)c4cc(O)c(O)c(O)c4-c4c(cc(O)c(O)c4O)C(=O)OC[C@H]2O[C@@H](OC(=O)c2cc(O)c(O)c(O)c2)[C@@H]3OC(=O)c2cc(O)c(O)c3c2[C@H]1[C@H](O)C(=O)O3 [Chebulagic acid] | 35 % of Control | 10 % of Control | 8 % of Control | marked inhibition | 70 % of Control | 40 % of Control | 5 % of Control | 112 % of Control | 100 % of Control | 66 % of Control | – | – | – | – | – | – | – | – | – | – |
| O=C(O)C[C@H](C(=O)O)[C@H]1c2c(cc(O)c(O)c2O)C(=O)O[C@@H]1C(=O)O [Chebulic acid, reference compound] | 105 % of Control | 96 % of Control | – | neither Lopinavir, a commercial inhibitor of viral RNA replication, nor chebulic acid manifested effective inhibition | 68 % of Control | 106 % of Control | – | 96 % of Control | 108 % of Control | – | 78 % of Control | 111 % of Control | – | – | – | – | – | – | – | – |
| O=C(O)C[C@H]1C(=O)O[C@H]2[C@H](OC(=O)c3cc(O)c(O)c(O)c3)[C@@H](OC(=O)c3cc(O)c(O)c4c3[C@H]1[C@H](O)C(=O)O4)[C@H](OC(=O)c1cc(O)c(O)c(O)c1)O[C@@H]2COC(=O)c1cc(O)c(O)c(O)c1 [Chebulinic acid] | 25 % of Control | 14 % of Control | 7 % of Control | marked inhibition | 131 % of Control | 96 % of Control | 18 % of Control | 114 % of Control | 109 % of Control | 101 % of Control | – | – | – | – | – | – | – | – | – | – |
| Cc1cccc(C)c1OCC(=O)N[C@@H](Cc1ccccc1)[C@@H](O)C[C@H](Cc1ccccc1)NC(=O)[C@H](C(C)C)N1CCCNC1=O [Lopinavir, reference compound] | – | – | – | neither Lopinavir, a commercial inhibitor of viral RNA replication, nor chebulic acid manifested effective inhibition | – | – | – | – | – | – | – | – | > 50 | 91 % of Control | 80 % of Control | 73 % of Control | 81 % of Control | 103 % of Control | 104 % of Control | – |
| O=C(OC[C@H]1O[C@@H](OC(=O)c2cc(O)c(O)c(O)c2)[C@H](OC(=O)c2cc(O)c(O)c(O)c2)[C@@H](OC(=O)c2cc(O)c(O)c(O)c2)[C@@H]1OC(=O)c1cc(O)c(O)c(O)c1)c1cc(O)c(O)c(O)c1 [Pentagallolyl glucose, Pentagalloyl glucose] | 32 % of Control | 12 % of Control | 4 % of Control | marked inhibition | 91 % of Control | 64 % of Control | 0 % of Control | 100 % of Control | 104 % of Control | 0 % of Control | – | – | – | – | – | – | – | – | – | – |
| Actemra: a humanized anti-IL-6R monoclonal antibody | – | – | – | – | – | – | – | – | – | – | – | – | – | – | – | – | – | – | – | 75 |
